According to patent US20010041346A1, “METHOD FOR ASSAYING COMPOUNDS AFFECTING SMOOTH MUSCLE CONTRACTILE STATE” (priority 1999, published 2001):

What was measured:
[1] = tested on: PP1M; test: Phosphatase assay in anti-MBS immunopellets; format: biochemical, human
[2] = tested on: myosin light chain phosphorylation in rat aortic smooth muscle cells; test: Agonist-stimulated myosin light chain phosphorylation in intact vascular smooth muscle cells; format: cell-based; settings: n=3
Source text: The extent of agonist-stimulated myosin light chain phosphorylation was quantified in intact vascular smooth muscle cells transfected with either vector alone or a plasmid expressing the cGK1α leucine/isoleucine zipper domain (CGK1-59), to examine the effects of disrupting the cGK1α-MBS interaction on cGMP-mediated inhibition of myosin light chain phosphorylation. cGK1α1-59 was cloned into the mammalian expression vector pCI (Promega, Madison, Wis.). Rat aortic smooth muscle cells of passage 6 through 10 were transfected with either vector alone (pCI) or cDNA for the leucine/isoleucine zipper peptide from cGK (cGK1α1-59pCI) by electroporation. Cells were arrested in DME supplemented with insulin, ascorbic acid and transferrin, then stimulated with 2 μM of the thromboxane analogue U46619 for 1 minute in the absence or presence of 20 minute pretreatment with 1 mM 8-Br-cGMP. Following treatment, cells were precipitated with trichloroacetic acid, washed with acetone, and protein was subjected to glycerol-urea electrophoresis (Taylor et al., J. Biol Chem. 263, 14456, 1988). Myosin light chain phosphorylation state was quantified by immunoblotting the unphosphorylated and phosphorylated forms of myosin light chain with monoclonal antimyosin light chain antibody (Sigma, clone MY-21). Protein bands were analyzed by densitometry. Statistical analysis was performed using Student-Newman-Keuls method. Data represent the means+/−standard error of three separate experiments in duplicate.

[3] = target: T1, PP1M phosphatase activity (Homo sapiens, UniProt P62140); test: Phosphatase assay in cGKIα immunopellets; format: biochemical
T1 construct: cGKIα was immunoprecipitated and phosphatase activity was assayed in the immunopellets as described herein; endogenous in cells; host or cells: human saphenous vein smooth muscle cells
Description: Immunopellets, prepared as described herein, were washed and resuspended in phosphatase assay buffer A (20 mM MOPS, 20 mM glucose, 1 mM dithiothreitol, 1 mM theophylline, 1 mg/ml BSA, and 5 mM azide, pH 7.5). ^32P-labeled phosphorylase a (final concentration 10 μM; Dr. D. Brautigan, University of Virginia, Va.) in either buffer A alone, buffer A with 10 mM 8-bromo-cGMP, buffer A with 2 nM okadaic acid, or buffer A with 1 μM okadaic acid was added to the immunopellets. The reactions were incubated at 30° C. for 30 minutes and terminated with trichloroacetic acid. In separate experiments, ^32P-myosin light chains were used as substrate in place of phosphorylase a.
PP1M phosphatase activity in the cGKIα immunoprecipitates was measured against two known PP1M substrates, myosin light chain and phosphorylase a. cGKIα was immunoprecipitated and phosphatase activity was assayed in the immunopellets as described herein.

[4] = target: T2, cGK from human saphenous vein smooth muscle cell lysates (Homo sapiens, UniProt Q13976); test: GST-fusion protein binding, immunoblot for cGK; settings: GST pulldown, immunoblotting with anti-cGK antibody
T2 construct: from tissue; host or cells: frozen human saphenous vein, homogenized
T2 sequence (Q13976 1-671): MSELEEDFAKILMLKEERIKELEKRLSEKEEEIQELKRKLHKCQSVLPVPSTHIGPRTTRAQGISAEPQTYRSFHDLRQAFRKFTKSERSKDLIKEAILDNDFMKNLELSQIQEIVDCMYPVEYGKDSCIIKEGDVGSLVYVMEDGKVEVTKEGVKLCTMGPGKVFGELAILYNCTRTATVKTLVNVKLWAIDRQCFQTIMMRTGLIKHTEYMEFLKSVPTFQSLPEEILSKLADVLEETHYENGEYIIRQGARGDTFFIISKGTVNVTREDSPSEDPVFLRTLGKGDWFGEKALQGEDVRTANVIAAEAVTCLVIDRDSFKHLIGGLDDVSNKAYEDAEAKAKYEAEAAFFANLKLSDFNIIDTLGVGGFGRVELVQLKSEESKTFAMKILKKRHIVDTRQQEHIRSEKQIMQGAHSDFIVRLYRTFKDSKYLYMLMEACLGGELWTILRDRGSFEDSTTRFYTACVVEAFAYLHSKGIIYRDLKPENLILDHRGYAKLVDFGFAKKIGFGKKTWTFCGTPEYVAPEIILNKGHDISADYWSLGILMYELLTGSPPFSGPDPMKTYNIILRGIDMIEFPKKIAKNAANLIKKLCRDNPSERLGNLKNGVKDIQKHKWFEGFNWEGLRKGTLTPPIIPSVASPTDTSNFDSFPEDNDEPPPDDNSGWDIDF
Description: Lysates were centrifuged for 15 minutes at 4° C. in a microfuge, and the supernatant was incubated with 100 μl of GST or GST-fusion protein beads overnight, followed by washing in RIPA buffer containing 1% NP40, and boiling for 5 minutes in SDS sample buffer. Associated proteins were resolved by SDS-PAGE and transferred to nitrocellulose, which was blocked in PBS with 0.05% Tween 20 and 5% milk. Primary antibody incubation with rabbit polyclonal anti-human cGPK-CT (Upstate Biotechnology, Lake Placid, N.Y.) was carried out at 1:2000 dilution and rabbit polyclonal anti-MBS antibody (Berkeley Antibody Company, Richmond, Calif.) at 1:1600 dilution in blocking buffer for one hour at room temperature, followed by secondary antibody incubation with anti-rabbit horseradish peroxidase-conjugated IgG (Amersham Life Science, Arlington Heights, Ill.) at 1:500 in blocking buffer. The membranes were developed with ECL (Amersham Life Science, Arlington Heights, Ill.).
The 586 base pair cDNA insert from AL9, the 177 base pair N-terminal cGK1α truncation mutant, cGK1α1-59, the N-terminal 274 base pairs of cGKIβ, and the N-terminal 816 base pairs of cGKII were cloned into pGEX (Pharmacia Biotech, Piscataway, N.J.). GST fusion proteins were expressed in bacterial strain BL21 (Stratagene, La Jolla, Calif.) according to standard techniques. […]

T1 sequence (P62140 whole entry, one chain of several): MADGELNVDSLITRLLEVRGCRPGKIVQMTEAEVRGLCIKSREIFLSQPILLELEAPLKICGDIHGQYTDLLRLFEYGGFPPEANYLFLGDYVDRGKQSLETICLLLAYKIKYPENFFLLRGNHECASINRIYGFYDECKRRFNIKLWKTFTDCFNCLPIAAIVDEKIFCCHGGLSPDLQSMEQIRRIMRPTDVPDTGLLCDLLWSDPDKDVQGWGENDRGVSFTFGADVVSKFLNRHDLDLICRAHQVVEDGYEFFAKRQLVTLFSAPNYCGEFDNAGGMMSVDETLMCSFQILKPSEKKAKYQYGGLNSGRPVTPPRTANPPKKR
T1 sequence (O14974 whole entry partner, one chain of several): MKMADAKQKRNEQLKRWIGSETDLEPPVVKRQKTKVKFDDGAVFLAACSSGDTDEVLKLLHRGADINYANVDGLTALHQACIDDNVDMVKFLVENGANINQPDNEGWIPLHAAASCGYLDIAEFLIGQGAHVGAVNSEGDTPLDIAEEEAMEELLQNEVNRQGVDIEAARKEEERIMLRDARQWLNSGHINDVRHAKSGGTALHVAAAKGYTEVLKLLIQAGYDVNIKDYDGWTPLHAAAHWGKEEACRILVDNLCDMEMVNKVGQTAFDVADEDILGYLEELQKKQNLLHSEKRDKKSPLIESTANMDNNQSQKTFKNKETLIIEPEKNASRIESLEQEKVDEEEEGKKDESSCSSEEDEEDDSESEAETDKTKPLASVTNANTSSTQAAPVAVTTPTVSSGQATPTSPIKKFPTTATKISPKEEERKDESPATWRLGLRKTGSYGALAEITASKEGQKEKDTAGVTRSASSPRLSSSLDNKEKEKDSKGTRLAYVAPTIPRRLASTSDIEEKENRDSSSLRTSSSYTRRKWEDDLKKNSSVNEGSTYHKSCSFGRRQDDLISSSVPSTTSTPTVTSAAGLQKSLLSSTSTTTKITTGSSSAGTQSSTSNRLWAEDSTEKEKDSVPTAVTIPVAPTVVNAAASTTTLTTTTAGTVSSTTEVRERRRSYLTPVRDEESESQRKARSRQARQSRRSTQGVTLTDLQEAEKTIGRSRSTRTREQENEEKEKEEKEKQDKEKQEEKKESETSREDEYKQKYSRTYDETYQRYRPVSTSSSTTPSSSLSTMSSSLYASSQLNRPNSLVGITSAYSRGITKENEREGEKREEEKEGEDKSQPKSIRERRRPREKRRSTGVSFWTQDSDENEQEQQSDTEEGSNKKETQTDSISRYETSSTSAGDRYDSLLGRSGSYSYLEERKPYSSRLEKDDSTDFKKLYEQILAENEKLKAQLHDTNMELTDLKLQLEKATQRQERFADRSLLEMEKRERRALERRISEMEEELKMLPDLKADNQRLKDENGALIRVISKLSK

Nc1nc2c(nc(Br)n2[C@@H]2O[C@@H]3COP(=O)(O)O[C@H]3[C@H]2O)c(=O)[nH]1 [8-bromo-cGMP]
increase of PP1 phosphatase activity in the MBS immunopellet ([1]; 8-bromo-cGMP added to anti-MBS immunopellets, n=5): 32+/−13% | inhibition of U46619-stimulated myosin light chain phosphorylation ([2]; cells expressing cGK1-59, 20 minute pretreatment with 1 mM 8-Br-cGMP): 35% | inhibition of U46619-mediated myosin light chain phosphorylation ([2]; control-transfected cells, 20 minute pretreatment with 1 mM 8-Br-cGMP): 79+/−17%

Nc1nc2c(nc(Sc3ccc(Cl)cc3)n2[C@@H]2O[C@@H]3CO[P@@](=O)(S)O[C@H]3[C@H]2O)c(=O)[nH]1 [Rp-8-pCPT-cGMPS]
effect on activation of PP1M by 8-bromo-cGMP ([1]; preincubation of the complex with the inhibitor, two separate experiments): prevented

CCCCC[C@H](O)/C=C/[C@@H]1[C@@H](C/C=C\CCCC(=O)O)[C@H]2CO[C@@H]1C2 [U46619]
myosin light chain phosphorylation ([2]; 2 μM U46619 for 1 minute, baseline 10+/−2%, vector control and cGK1-59-transfected cells): 68+/−2%

C=C1[C@@H](O)[C@@H]2O[C@]3(CC[C@H](/C=C/[C@@H](C)[C@@H]4CC(C)=C[C@@]5(O[C@H](C[C@@](C)(O)C(=O)O)CC[C@H]5O)O4)O3)CC[C@H]2O[C@@H]1[C@@H](O)C[C@H](C)[C@H]1O[C@@]2(CCCCO2)CC[C@H]1C [okadaic acid]
inhibition at 0.002 µM ([3]; 2 nM okadaic acid, n=3, P=NS): 12% | inhibition at 1 µM ([3]; 1 μM okadaic acid, n=3, p<0.001 vs. untreated): 79%

B1: MBS1-690: 690 amino acid N-terminal half of MBS (protein, UniProt O14974 1-690, looked up, fragment)
chain: MKMADAKQKRNEQLKRWIGSETDLEPPVVKRQKTKVKFDDGAVFLAACSSGDTDEVLKLLHRGADINYANVDGLTALHQACIDDNVDMVKFLVENGANINQPDNEGWIPLHAAASCGYLDIAEFLIGQGAHVGAVNSEGDTPLDIAEEEAMEELLQNEVNRQGVDIEAARKEEERIMLRDARQWLNSGHINDVRHAKSGGTALHVAAAKGYTEVLKLLIQAGYDVNIKDYDGWTPLHAAAHWGKEEACRILVDNLCDMEMVNKVGQTAFDVADEDILGYLEELQKKQNLLHSEKRDKKSPLIESTANMDNNQSQKTFKNKETLIIEPEKNASRIESLEQEKVDEEEEGKKDESSCSSEEDEEDDSESEAETDKTKPLASVTNANTSSTQAAPVAVTTPTVSSGQATPTSPIKKFPTTATKISPKEEERKDESPATWRLGLRKTGSYGALAEITASKEGQKEKDTAGVTRSASSPRLSSSLDNKEKEKDSKGTRLAYVAPTIPRRLASTSDIEEKENRDSSSLRTSSSYTRRKWEDDLKKNSSVNEGSTYHKSCSFGRRQDDLISSSVPSTTSTPTVTSAAGLQKSLLSSTSTTTKITTGSSSAGTQSSTSNRLWAEDSTEKEKDSVPTAVTIPVAPTVVNAAASTTTLTTTTAGTVSSTTEVRERRRSYLTPVRDEESESQRKARSRQAR
binding of cGK from smooth muscle cell lysates [4]: no interaction with cGK
